Measurements from patent US20120021044A1, “Novel Cationic Lipid, A Preparation Method of the Same and A Delivery System Comprising the Same” (SNU R&DB FOUNDATION, priority 2007, published 2012).

System: Bcl2 transcript in SiHa cells
Assay: Bcl2 transcript expression by RT-PCR after delivery of Bcl2 antisense oligonucleotide into SiHa cells
Assay type: cell-based, human
Conditions: Bcl2 antisense oligonucleotide 100 nM, 24 hours, FIG. 8
Method: On the day prior to the experiment, SiHa cells were seeded on 24-well plates at a density of 8×10^4 cells/well. […] The antisense oligonucleotide to induce the inhibition of expression of the Bcl2 gene (Genbank accession number: […] These materials were slowly pipetted, mixed and allowed to stand at room temperature for 20 min, thus resulting in formation of complexes. The thus-prepared complexes were added to the well plates, followed by cell culture in a CO2 incubator at 37° C. for 24 hours. After 24 hours, total RNA was isolated from the cultured cells using a Trizol reagent (Invitrogen, Carlsbad, Calif., USA) and then reverse-transcribed into cDNA using AccuPower RT PreMix (Bioneer, Daejeon, Korea). […] An expression level of the Bcl2 transcript was assayed by determining quantitative changes of the gene expression through normalization of a band density of the Bcl2-specific PCR product against a band density occurring by amplification of the GAPDH (glyceraldehyde-3-phosphate dehydrogenase) gene.

“antisense oligonucleotide-alone: Bcl2 antisense oligonucleotide 5'-TCT CCC AGC GTG CGC CAT-3' (Bioneer), given without delivery system (antisense TCTCCCAGCGTGCGCCAT; chemistry not given here)” was tested, and the “amount of the Bcl2 transcript (RT-PCR, normalized against GAPDH)” value was “no changes in an amount of the Bcl2 transcript”.
